According to patent US20170253601A1, “Substituted Pyrrolidine Compounds” (EPIZYME, INC., priority 2014, published 2017):

The compounds below were run against T1, SMYD2 (Homo sapiens, UniProt Q9NRG4) (assay: SMYD2 Biochemical Assay (3H-SAM, biotinylated peptide substrate, Flashplate)). Conditions: Table 1; average of n = 1 to n = 50; read-out: SMYD2 Biochem IC50.
T1 construct: Full length SMYD2 (NP 064582.2) was cloned; His6 (N, cleaved yes); FLAG (N); made in house; host or cells: Sf9 insect cells
T1 sequence (Q9NRG4 whole entry): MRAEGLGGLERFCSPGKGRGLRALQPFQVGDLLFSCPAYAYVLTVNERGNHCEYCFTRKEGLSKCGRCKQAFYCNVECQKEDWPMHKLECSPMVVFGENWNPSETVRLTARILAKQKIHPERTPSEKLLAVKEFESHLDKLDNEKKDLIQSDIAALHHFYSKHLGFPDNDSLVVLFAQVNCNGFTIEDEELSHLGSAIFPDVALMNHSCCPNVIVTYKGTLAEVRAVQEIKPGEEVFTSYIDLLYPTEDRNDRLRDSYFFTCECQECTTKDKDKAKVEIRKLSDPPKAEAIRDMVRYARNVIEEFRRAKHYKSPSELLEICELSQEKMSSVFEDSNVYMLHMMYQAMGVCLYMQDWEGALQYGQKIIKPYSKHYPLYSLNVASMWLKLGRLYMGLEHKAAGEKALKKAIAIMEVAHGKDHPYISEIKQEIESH
Description: S-adenosylmethionine (SAM), S-adenosylhomocysteine (SAH), bicine, Tween20, dimethylsulfoxide (DMSO), bovine skin gelatin (BSG), and Tris(2-carboxyethyl)phosphine hydrochloride (TCEP) were purchased from Sigma-Aldrich at the highest level of purity possible. ^3H-SAM was purchase from American Radiolabeled Chemicals with a specific activity of 80 Ci/mmol. 384-well streptavidin Flashplates were purchased from PerkinElmer.
Peptide was synthesized with a N-terminal linker-affinity tag motif and a C-terminal amide cap by 21st Century Biochemicals. The peptide was high-performance liquid chromatography (HPLC) purified to greater than 95% purity and confirmed by liquid chromatography mass spectrometry (LC-MS). The sequence was […](K-Biot)-amide. (SEQ ID No: 3)
Full length SMYD2 (NP 064582.2) was cloned into a pFastbac-Htb-lic vector with an N-terminal His6 tag and FLAG tag, preceded by a TEV protease cleavage site. The protein was expressed in Sf9 insect cells. Cells were resuspended in lysis buffer (25 mM HEPES-NaOH, pH 7.5, 200 mM NaCl, 5% glycerol, and 5 mM β-ME) and lysed by sonication. The protein was purified by Ni-NTA (Qiagen), followed by TEV cleavage to remove the His6 tag, subtractive Ni-NTA (Qiagen), and gel filtration chromatography using an […] (GE Healthcare). Purified protein was stored in 20 mM Tris-HCl, pH 8.0, 100 mM NaCl, and 1 mM TCEP.
The assays were all performed in a buffer consisting of 20 mM Bicine (pH=7.6), 1 mM TCEP, 0.005% Bovine Skin Gelatin, and 0.002% Tween20, prepared on the day of use. Compounds in 100% DMSO (1 ul) were spotted into a polypropylene 384-well V-bottom plates (Greiner) using a Platemate Plus outfitted with a 384-channel head (Thermo Scientific). DMSO (1 ul) was added to Columns 11, 12, 23, 24, rows A-H for the maximum signal control and 1 ul of SAH, a known product and inhibitor of SMYD2, was added to columns 11, 12, 23, 24, rows I-P for the minimum signal control. A cocktail (40 ul) containing the SMYD2 enzyme was added by Multidrop Combi (Thermo-Fisher). The compounds were allowed to incubate with SMYD2 for 30 min at room temperature, then a cocktail (10 ul) containing ^3H-SAM and peptide was added to initiate the reaction (final volume=51 ul). The final concentrations of the components were as follows: SMYD2 was 1.5 nM, ^3H-SAM was 10 nM, and peptide was 60 nM, SAH in the minimum signal control wells was 1000 uM, and the DMSO concentration was 2%. The assays were stopped by the addition of non-radioactive SAM (10 ul) to a final concentration of 600 uM, which dilutes the ^3H-SAM to a level where its incorporation into the peptide substrate is no longer detectable. 50 ul of the reaction in the 384-well polypropylene plate was then transferred to a 384-well Flashplate and the biotinylated peptides were allowed to bind to the streptavidin surface for at least 1 hour before being washed three times with 0.1% Tween20 in a Biotek ELx405 plate washer. The plates were then read in a PerkinElmer TopCount plate reader to measure the quantity of ^3H-labeled peptide bound to the Flashplate surface, measured as disintegrations per minute (dpm) or alternatively, referred to as counts per minute (cpm).
Where dpm=disintegrations per minute, cmpd=signal in assay well, and min and max are the respective minimum and maximum signal controls.
Where top and bottom are the normally allowed to float, but may be fixed at 100 or 0 respectively in a 3-parameter fit. The Hill Coefficient normally allowed to float but may also be fixed at 1 in a 3-parameter fit. I is the compound concentration.
SMYD2 biochemical assay data for representative Compounds of the Disclosure are presented in Tables 1-3 in the column titled “SMYD2 Biochem IC50 (μM).”
With C[C@H]1CN(C2CC2)C[C@H]1NC(=O)c1cc(C2CC2)on1 (racemic) [Cpd. No. 45, (±)-cis-5-cyclopropyl-N-(1-cyclopropyl-4-methylpyrrolidin-3-yl)isoxazole-3-carboxamide] the IC50 was 19.2 µM.
In the case of C[C@@H]1CN(C2CC2)C[C@H]1NC(=O)c1cc(C2CC2)on1 (racemic) [Cpd. No. 46, (±)-trans-5-cyclopropyl-N-(1-cyclopropyl-4-methylpyrrolidin-3-yl)isoxazole-3-carboxamide], the IC50 is reported as 2.75 µM.
O=C(N[C@@H]1CN(C2CC2)C[C@@H]1CO)c1cc(C2CC2)on1 (racemic) [Cpd. No. 48, (±)-cis-5-cyclopropyl-N-(1-cyclopropyl-4-(hydroxymethyl)pyrrolidin-3-yl)isoxazole-3-carboxamide] gave an IC50 of 8.46 µM.
For C[C@H]1CNC[C@H]1NC(=O)c1cc(C2CC2)on1 (racemic) [compound 38, (±)-cis-5-cyclopropyl-N-(4-methylpyrrolidin-3-yl)isoxazole-3-carboxamide], the IC50 was 15.4 µM.
With C[C@@H]1CN(C)C[C@H]1NC(=O)c1cc(C2CC2)on1 (racemic) [compound 39] the IC50 was 33.6 µM.
CN1C[C@@H](O)[C@H](NC(=O)c2cc(C3CC3)on2)C1 (racemic) [compound 40, (±)-trans-5-cyclopropyl-N-(-4-hydroxy-1-methylpyrrolidin-3-yl)isoxazole-3-carboxamide] gave an IC50 greater than 50 µM.
C[C@@H]1CNC[C@H]1NC(=O)c1cc(C2CC2)on1 (racemic) [compound 43, (±)-trans-5-cyclopropyl-N-(4-methyl-pyrrolidin-3-yl)isoxazole-3-carboxamide] was tested, and the IC50 was greater than 50 µM.
C[C@H]1CN(C)C[C@H]1NC(=O)c1cc(C2CC2)on1 (racemic) [compound 44] showed an IC50 of 4.6 µM.
For O=C(N[C@@H]1CN(C2CC2)C[C@H]1O)c1cc(C2CC2)on1 (racemic) [compound 47, (±)-trans-5-cyclopropyl-N-(1-cyclopropyl-4-hydroxypyrrolidin-3-yl)isoxazole-3-carboxamide], the IC50 was greater than 50 µM.
O=C(N[C@@H]1C[C@H](CO)N(C2CC2)C1)c1cc(C2CC2)on1 (racemic) [compound 49, (±)-cis-5-cyclopropyl-N-(1-cyclopropyl-5-(hydroxy-methyl)pyrrolidin-3-yl)isoxazole-3-carboxamide] showed an IC50 greater than 50 µM.
Work on C[C@H]1CN(C2CC2)C[C@@H]1NC(=O)c1cc(C2CC2)no1 (racemic) [compound 50, (±)-trans-3-cyclopropyl-N-(1-cyclopropyl-4-methylpyrrolidin-3-yl)isoxazole-5-carboxamide] yielded an IC50 greater than 50 µM.
Compound C[C@H]1CN(C2CC2)C[C@H]1NC(=O)c1cc(C2CC2)no1 (racemic) [compound 51, (±)-cis-3-cyclopropyl-N-(1-cyclopropyl-4-methylpyrrolidin-3-yl)isoxazole-5-carboxamide] has an IC50 of 7.9 µM.
CCc1cc(C(=O)N[C@H]2CN(C3CC3)C[C@@H]2C)no1 (racemic) [compound 52, (±)-trans-N-(1-cyclopropyl-4-methylpyrrolidin-3-yl)-5-ethylisoxazole-3-carboxamide] gave an IC50 greater than 50 µM.
C[C@H]1CN(C2CC2)C[C@@H]1NC(=O)c1cc(C2CCCC2)on1 (racemic) [compound 53, (±)-trans-5-cyclopentyl-N-(1-cyclopropyl-4-methylpyrrolidin-3-yl)isoxazole-3-carboxamide] showed an IC50 greater than 50 µM.
C[C@H]1CN(C2CC2)C[C@H]1NC(=O)c1cc(C2CCCC2)on1 (racemic) [compound 54, (±)-cis-5-cyclopentyl-N-(1-cyclopropyl-4-methylpyrrolidin-3-yl)isoxazole-3-carboxamide] showed an IC50 greater than 50 µM.

Same assay, conditions: Table 2; average of n = 1 to n = 50; read-out: SMYD2 Biochem IC50
C[C@H]1C[C@@H](NC(=O)c2cc(C3CC3)on2)CN1 (racemic) [compound 63, (±)-cis 5-cyclopropyl-N-(5-methylpyrrolidin-3-yl)isoxazole-3-carboxamide] showed an IC50 greater than 50 µM.
Compound C[C@H]1C[C@@H](NC(=O)c2cc(C3CC3)on2)CN1C (racemic) [compound 64, (±)-cis-5-cyclopropyl-N-(1,5-dimethylpyrrolidin-3-yl)isoxazole-3-carboxamide] has an IC50 greater than 50 µM.
CC(C)N1C[C@H](C)[C@H](NC(=O)c2cc(C3CC3)on2)C1 (racemic) [compound 65, (±)-cis-5-cyclopropyl-N-(1-isopropyl-4-methylpyrrolidin-3-yl)isoxazole-3-carboxamide] was tested, and the IC50 was 2.4 µM.
C[C@H]1CN(S(C)(=O)=O)C[C@H]1NC(=O)c1cc(C2CC2)on1 (racemic) [compound 66, (±)-cis-5-cyclopropyl-N-(4-methyl-1-(methyl-sulfonyl)pyrrolidin-3-yl)isoxazole-3-carboxamide] was tested, and the IC50 was greater than 50 µM.
C[C@@H]1CN(S(=O)(=O)C2CCNCC2)C[C@@H]1NC(=O)c1cc(C2CC2)on1 (racemic) [compound 67, (±)-cis 5-cyclopropyl-N-(4-methyl-1-(piperidin-4-ylsulfonyl)pyrrolidin-3-yl)isoxazole-3-carboxamide] showed an IC50 greater than 50 µM.
C[C@@H]1CN(C(=O)CN)C[C@@H]1NC(=O)c1cc(C2CC2)on1 (racemic) [compound 68, (±)-cis-5-cyclopropyl-N-(1-glycyl-4-methylpyrrolidin-3-yl)isoxazole-3-carboxamide] showed an IC50 greater than 50 µM.
Compound C[C@@H]1CN(C(=O)CO)C[C@@H]1NC(=O)c1cc(C2CC2)on1 (racemic) [compound 69, (±)-cis-5-cyclopropyl-N-(1-(2-hydroxyacetyl)-4-methylpyrrolidin-3-yl)isoxazole-3-carboxamide] has an IC50 greater than 50 µM.
C[C@H]1CN(C(=O)C2CCNCC2)C[C@H]1NC(=O)c1cc(C2CC2)on1 (racemic) [compound 70, (±)-cis-5-cyclopropyl-N-(4-methyl-1-(piperidine-4-carbonyl)pyrrolidin-3-yl)isoxazole-3-carboxamide] gave an IC50 greater than 50 µM.
For C[C@@H]1CN(C(=O)CC2CCNCC2)C[C@@H]1NC(=O)c1cc(C2CC2)on1 (racemic) [compound 71, (±)-cis-5-cyclopropyl-N-(4-methyl-1-(2-(piperidin-4-yl)acetyl)pyrrolidin-3-yl)isoxazole-3-carboxamide], the IC50 was greater than 50 µM.
For C[C@@H]1CN(C2CCCCC2)C[C@@H]1NC(=O)c1cc(C2CC2)on1 (racemic) [compound 72, (±)-cis-N-(1-cyclohexyl-4-methylpyrrolidin-3-yl)-5-cyclopropylisoxazole-3-carboxamide], the IC50 was 18.4 µM.
C[C@@H]1CN(C2CCOCC2)C[C@@H]1NC(=O)c1cc(C2CC2)on1 (racemic) [compound 73, (±)-cis-5-cyclopropyl-N-(4-methyl-1-(tetrahydro-2H-pyran-4-yl)pyrrolidin-3-yl)isoxazole-3-carboxamide] gave an IC50 of 40.7 µM.
For C[C@@H]1CN(C2CCS(=O)(=O)CC2)C[C@@H]1NC(=O)c1cc(C2CC2)on1 (racemic) [compound 74, (±)-cis-5-cyclopropyl-N-(1-(1,1-dioxidotetrahydro-2H-thiopyran-4-yl)-4-methylpyrrolidin-3-yl)isoxazole-3-carboxamide], the IC50 was 14 µM.
C[C@H]1CN(C2CCCC2)C[C@H]1NC(=O)c1cc(C2CC2)on1 (racemic) [compound 75, (±)-cis-N-(1-cyclopentyl-4-methylpyrrolidin-3-yl)-5-cyclopropylisoxazole-3-carboxamide] gave an IC50 of 5 µM.
C[C@H]1CN(CCS(C)(=O)=O)C[C@H]1NC(=O)c1cc(C2CC2)on1 (racemic) [compound 77, (±)-cis-cyclopropyl-N-((3S)-4-methyl-1-(2-(methyl-sulfonyl)ethyl)pyrrolidin-3-yl)isoxazole-3-carboxamide] gave an IC50 greater than 50 µM.
